Columns and labels:
[1] = Standard in vitro assays of immunosuppressivity in comparison to FK506 and rapamycin; assay type: cell-based
Excerpt: This can be shown in standard in vitro assays in comparison to FK506 and rapamycin. […] Nonimmunosuppressivity can also be shown in the in vivo models 1-7 above.

[2] = test system: interleukin-6 (IL-6)-dependent mouse hybridoma cell line; details: cited from earlier work
IL-2 transcription = details: IL-2 reporter gene assay; cited from earlier work
[3] = test system: Balb/c spleen cells stimulated with irradiated CBA spleen cells; details: cited from earlier work

Molecule	immunosuppressivity (in words) [1]	inhibition of IL-6 dependent T-cell proliferation (in words) [2]	inhibition of IL-2 transcription (in words) (IL-2 transcription)	inhibition of the mixed lymphocyte reaction (in words) [3]
CO[C@H]1C[C@@H]2CC[C@@H](C)[C@@](O)(O2)C(=O)C(=O)N2CCCC[C@H]2C(=O)O[C@H]([C@H](C)C[C@@H]2CC[C@@H](O)[C@H](OC)C2)CC(=O)[C@H](C)/C=C(\C)[C@@H](OC)[C@@H](OC)C(=O)[C@H](C)C[C@H](C)/C=C/C=C/C=C/1C [Example 21, 28-O-Methyl-rapamycin]	not immunosuppressive	–	–	–
Rapamycin	–	strongly inhibits	not active	very potent inhibitors
